In patent US12495798B2, “Nicotinamide compound and herbicidal composition comprising compound” (KOREA RESEARCH INSTITUTE OF CHEMICAL TECHNOLOGY, priority 2019, dated 2025):

What was measured:
Assay type in all cases: in vivo
barnyard grass [1] = assay: Herbicidal activity test against upland field weeds (foliar treatment test); design: key to Foliar treatment herbicidal activity, barnyard grass: 0 (no control); 100 (complete control); conditions: scale 0-100; for Foliar treatment herbicidal activity, barnyard grass: 50 g ai/ha
Outline: (§1)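 Visual 0–100 control ratings relative to untreated plants, taken 14 (or 21) days after spraying foliage at 50 or 75 g a.i./ha. Spray solution: 50% acetone with 0.1% Tween-20; plants kept in greenhouse at 30±5 °C, 14 h light/10 h dark.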

cocklebur [2] = assay: Herbicidal activity test against upland field weeds (soil treatment test); design: key to Soil treatment herbicidal activity, Cocklebur: 0 (no control); 100 (complete control); conditions: scale 0 (no control) to 100 (complete control); for Soil treatment herbicidal activity, Cocklebur: 50 g ai/ha
Outline: (§2)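 Weed control scored visually on a 0 (none) to 100 (complete) scale versus untreated pots at 14 or 21 days in greenhouse (30±5 °C, 14 h light). Test compounds, 50 or 75 g a.i./ha in 50% acetone/0.1% Tween-20, hand-sprayed onto soil one day post-sowing.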

indian jointvetch [3] = assay: as above; design: key to Soil treatment herbicidal activity, Indian jointvetch: 0 (no control); 100 (complete control); conditions: scale 0 (no control) to 100 (complete control)
Outline: as §2

crabgrass [4] = assay: as above; design: key to Soil treatment herbicidal activity, Crabgrass: 0 (no control); 100 (complete control); conditions: scale 0 (no control) to 100 (complete control)
Outline: as §2

quack grass [5] = assay: Herbicidal activity test against upland field weeds (foliar treatment test); design: key to Foliar treatment herbicidal activity, quack grass: 0 (no control); 100 (complete control); conditions: scale 0-100
Outline: as §1

velvetleaf [6] = assay: as above
Outline: as §1

crabgrass [7] = assay: as above; conditions: scale 0-100
Outline: as §1

fall panicum [8] = assay: as above; conditions: scale 0-100
Outline: as §1

sorghum [9] = assay: as above; conditions: scale 0-100
Outline: as §1

indian jointvetch [10] = assay: as above; conditions: scale 0-100
Outline: as §1

bindweed [11] = assay: as above; conditions: scale 0-100
Outline: as §1

bindweed [12] = assay: Herbicidal activity test against upland field weeds (soil treatment test); design: key to Soil treatment herbicidal activity, Bindweed: 0 (no control); 100 (complete control); conditions: scale 0 (no control) to 100 (complete control); for Soil treatment herbicidal activity, Bindweed: 50 g ai/ha
Outline: as §2

sorghum [13] = assay: as above; design: key to Soil treatment herbicidal activity, Sorghum: 0 (no control); 100 (complete control); conditions: scale 0 (no control) to 100 (complete control); for Soil treatment herbicidal activity, Sorghum: 50 g ai/ha
Outline: as §2

black nightshade [14] = assay: Herbicidal activity test against upland field weeds (foliar treatment test); design: key to Foliar treatment herbicidal activity, black nightshade: 0 (no control); 100 (complete control); conditions: scale 0-100; for Foliar treatment herbicidal activity, black nightshade: 50 g ai/ha
Outline: as §1

fall panicum [15] = assay: Herbicidal activity test against upland field weeds (soil treatment test); design: key to Soil treatment herbicidal activity, Fall panicum: 0 (no control); 100 (complete control); conditions: scale 0 (no control) to 100 (complete control); for Soil treatment herbicidal activity, Fall panicum: 50 g ai/ha
Outline: as §2

cocklebur [16] = assay: Herbicidal activity test against upland field weeds (foliar treatment test); design: key to Foliar treatment herbicidal activity, Cocklebur: 0 (no control); 100 (complete control); conditions: scale 0-100
Outline: as §1

velvetleaf [17] = assay: Herbicidal activity test against upland field weeds (soil treatment test); design: key to Soil treatment herbicidal activity, velvet leaf: 0 (no control); 100 (complete control); conditions: scale 0 (no control) to 100 (complete control)
Outline: as §2

quack grass [18] = assay: as above; design: key to Soil treatment herbicidal activity, quack grass: 0 (no control); 100 (complete control); conditions: scale 0 (no control) to 100 (complete control); for Soil treatment herbicidal activity, quack grass: 50 g ai/ha
Outline: as §2

black nightshade [19] = assay: as above; design: key to Soil treatment herbicidal activity, black nightshade: 0 (no control); 100 (complete control); conditions: scale 0 (no control) to 100 (complete control)
Outline: as §2

barnyard grass [20] = assay: as above; design: key to Soil treatment herbicidal activity, barnyard grass: 0 (no control); 100 (complete control); conditions: scale 0 (no control) to 100 (complete control)
Outline: as §2

[21] = Xanthium strumarium, 75 g ai/ha
[22] = Panicum dichotomiflorum, 75 g ai/ha

## Cn1nnc(CSCc2nc(C(F)F)ccc2C(=O)N(C(=O)c2ccccc2)c2nnnn2C)n1 [Compound No. 2-112, N-benzoyl-6-(difluoromethyl)-N-(1-methyl-1H-tetrazol-5-yl)-2-((((2-methyl-2H-tetrazol-5-yl)methyl)thio)methyl)nicotinamide]
Barnyard grass [1]
  Foliar treatment herbicidal activity, barnyard grass: 100
Cocklebur [2]
  Soil treatment herbicidal activity, Cocklebur: 0
Indian jointvetch [3]; 50 g ai/ha
  Soil treatment herbicidal activity, Indian jointvetch: 100
Crabgrass [4]; 50 g ai/ha
  Soil treatment herbicidal activity, Crabgrass: 0
Quack grass [5]; 50 g ai/ha
  Foliar treatment herbicidal activity, quack grass: 0
Velvetleaf [6]; Abutilon theophrasti, 50 g ai/ha, scale 0-100, read-out: Foliar treatment herbicidal activity, velvet leaf
  pest or weed control at 50 g/ha: 90%
Crabgrass [7]; Digitaria sanguinalis, 50 g ai/ha
  pest or weed control at 50 g/ha: 90%
Fall panicum [8]; Panicum dichotomiflorum, 50 g ai/ha
  pest or weed control at 50 g/ha: 70%
Sorghum [9]; Sorghum, 50 g ai/ha
  plant injury at 50 g/ha: 50%
Indian jointvetch [10]; 50 g ai/ha
  pest or weed control at 50 g/ha: 95%
Bindweed [11]; 50 g ai/ha
  pest or weed control at 50 g/ha: 98%
Bindweed [12]
  Soil treatment herbicidal activity, Bindweed: 0
Sorghum [13]
  Soil treatment herbicidal activity, Sorghum: 0
Black nightshade [14]
  Foliar treatment herbicidal activity, black nightshade: 100
Fall panicum [15]
  Soil treatment herbicidal activity, Fall panicum: 0
Cocklebur [16]; Xanthium strumarium, 50 g ai/ha
  pest or weed control at 50 g/ha: 98%
Velvetleaf [17]; 50 g ai/ha
  Soil treatment herbicidal activity, velvet leaf: 100
Quack grass [18]
  Soil treatment herbicidal activity, quack grass: 0
Black nightshade [19]; Solanum nigrum, 50 g ai/ha
  pest or weed control at 50 g/ha: 90%
Barnyard grass [20]; 50 g ai/ha
  Soil treatment herbicidal activity, barnyard grass: 0

## Cn1nnc(C[S+]([O-])Cc2nc(C(F)F)ccc2C(=O)Nc2nnnn2C)n1 (stereo not drawn) [Compound No. 2-111, 6-(difluoromethyl)-N-(1-methyl-1H-tetrazol-1-yl)-2-((((2-methyl-2H-tetrazol-5-yl)methyl)sulfinyl)methyl)nicotinamide]
Barnyard grass [1]
  Foliar treatment herbicidal activity, barnyard grass: 100
Cocklebur [2]
  Soil treatment herbicidal activity, Cocklebur: 0
Indian jointvetch [3]; 50 g ai/ha
  Soil treatment herbicidal activity, Indian jointvetch: 0
Crabgrass [4]; 50 g ai/ha
  Soil treatment herbicidal activity, Crabgrass: 0
Quack grass [5]; 50 g ai/ha
  Foliar treatment herbicidal activity, quack grass: 0
Velvetleaf [6]; 50 g ai/ha, scale 0-100
  Foliar treatment herbicidal activity, velvet leaf: 80
Crabgrass [7]; 50 g ai/ha
  Foliar treatment herbicidal activity, Crabgrass: 98
Fall panicum [8]; 50 g ai/ha
  Foliar treatment herbicidal activity, Fall panicum: 95
Sorghum [9]; 50 g ai/ha
  Foliar treatment herbicidal activity, Sorghum: 70
Indian jointvetch [10]; 50 g ai/ha
  Foliar treatment herbicidal activity, Indian jointvetch: 95
Bindweed [11]; 50 g ai/ha
  Foliar treatment herbicidal activity, Bindweed: 98
Bindweed [12]
  Soil treatment herbicidal activity, Bindweed: 0
Sorghum [13]
  Soil treatment herbicidal activity, Sorghum: 0
Black nightshade [14]
  Foliar treatment herbicidal activity, black nightshade: 100
Fall panicum [15]
  Soil treatment herbicidal activity, Fall panicum: 0
Cocklebur [16]; 50 g ai/ha
  Foliar treatment herbicidal activity, Cocklebur: 100
Velvetleaf [17]; 50 g ai/ha
  Soil treatment herbicidal activity, velvet leaf: 0
Quack grass [18]
  Soil treatment herbicidal activity, quack grass: 0
Black nightshade [19]; 50 g ai/ha
  Soil treatment herbicidal activity, black nightshade: 90
Barnyard grass [20]; 50 g ai/ha
  Soil treatment herbicidal activity, barnyard grass: 0

## CN(CCc1nnn(C)n1)c1nc(C(F)(F)F)ccc1C(=O)Nc1nnnn1C [Compound No. 2-36, 2-(methyl(2-(2-methyl-2H-tetrazol-5-yl)ethyl)amino)-N-(1-methyl-1H-tetrazol-5-yl)-6-(trifluoromethyl)nicotinamide]
Barnyard grass [1]; Echinochloa crus-galli, 75 g ai/ha
  pest or weed control at 75 g/ha: 90%
Cocklebur [2]; [21]
  pest or weed control at 75 g/ha: 90%
Indian jointvetch [3]; 75 g ai/ha
  Soil treatment herbicidal activity, Indian jointvetch: 100
Crabgrass [4]; 75 g ai/ha
  Soil treatment herbicidal activity, Crabgrass: 100
Quack grass [5]; 75 g ai/ha
  Foliar treatment herbicidal activity, quack grass: 0
Velvetleaf [6]; Abutilon theophrasti, 75 g ai/ha, scale 0-100, read-out: Foliar treatment herbicidal activity, velvet leaf
  pest or weed control at 75 g/ha: 50%
Crabgrass [7]; Digitaria sanguinalis, 75 g ai/ha
  pest or weed control at 75 g/ha: 60%
Fall panicum [8]; [22]
  pest or weed control at 75 g/ha: 50%
Sorghum [9]; Sorghum, 75 g ai/ha
  plant injury at 75 g/ha: 20%
Indian jointvetch [10]; 75 g ai/ha
  pest or weed control at 75 g/ha: 60%
Bindweed [11]; 75 g ai/ha
  pest or weed control at 75 g/ha: 70%
Bindweed [12]; 75 g ai/ha
  pest or weed control at 75 g/ha: 70%
Sorghum [13]; Sorghum, 75 g ai/ha
  plant injury at 75 g/ha: 20%
Black nightshade [14]; Solanum nigrum, 75 g ai/ha
  pest or weed control at 75 g/ha: 95%
Fall panicum [15]; [22]
  pest or weed control at 75 g/ha: 98%
Cocklebur [16]; [21]
  pest or weed control at 75 g/ha: 70%
Velvetleaf [17]; 75 g ai/ha
  Soil treatment herbicidal activity, velvet leaf: 100
Quack grass [18]; 75 g ai/ha
  pest or weed control at 75 g/ha: 10%
Black nightshade [19]; 75 g ai/ha
  Soil treatment herbicidal activity, black nightshade: 100
Barnyard grass [20]; 75 g ai/ha
  Soil treatment herbicidal activity, barnyard grass: 100
